The values that follow come from US7628987B2, “Vectors derived from antibodies for transferring substances into cells” (Institut Pasteur, priority 1997, dated 2009).

The inhibition is the drop in the measured response relative to a control, in per cent.

One data set concerns HSV-1 TK^− virus. Kind of data set: microbe, parasite or virus in culture. Format: cell-based, Herpes Virus Simplex type I. Conditions: for CPE inhibition (AI): HSV1 TK^−; for inhibition of the CPE effect, in words: HSV-1 TK^−.
For another data set, the system named is HSV-1 TK^+ virus. Kind of data set: microbe, parasite or virus in culture. Format: cell-based, Herpes Virus Simplex type I.
In a further data set the test system is PV1/Sabin. The class given is cell-based, polio virus type 1. Conditions: PV1/Sabin, peptide 25 μg/ml, day 5.
A further data set concerns PV1/Mahoney. Format: cell-based, polio virus type 1. Conditions: peptide 25 μg/ml, day 5.
Another data set concerns Vero cells. Kind of data set: Toxicity reference: non infected treated Vero cells (Neutral Red OD). The class given is cell-based, monkey. Here is the method: The CPE inhibition test is a semi-quantitative test which measures the % survival of the cells. The following protocol was followed: Vero cells were trypsinised (trypsin-versene, Eurobio), distributed in flat bottomed 96-well plates (Falcon) in an amount of […] per well, in 50 μl of DMEM medium (Bioproducts) supplemented with antibiotics, L-glutamine and 5% FCS (Eurobio), then incubated for 24 hours. The peptide/antibodies, sterilised on a […] filter, were added in an amount of […] using the following schedule: • H−24: cells into culture; • H−0: infection; • H−2, H−1, H0, H+1: add peptides; • H+48: CPE test.
48 hours after infection, the medium was removed and the wells were washed 3 times with 200 μl of sterile PBS buffer containing Ca^2+ and Mg^2+, so as to eliminate dead cells. Neutral Red (RAL, 0.3%) was added (100 μl/well) and the cells were incubated for 2 more hours. The cells were then washed 3 times as described above to eliminate colorant which had not been incorporated into the cells. The cells were then exploded by adding 100 μl of 1% SDS in distilled water. After 1 hour at 4° C. to completely leach out the Neutral Red, the crystals were dissolved with a pipette. Air bubbles were destroyed by a current of hot air (hair dryer) and the plates were read, using a microplate reader at 570 nm using a 630 nm reference filter. The optical density blank was air.
The following controls were used: • Reference cells: non infected and non treated, incubated with Neutral Red; • Reference virus: infected cells with different dilutions of a factor of 2 of virus, from 100% CPE (dilution 1/1) to 12.5% CPE (1/8 dilution); • Antiviral reference: cells treated with acyclovir and infected; and • Toxicity reference: non infected cells, treated with different peptides/antibodies.

[1] abbreviates: HSV1 TK^+, added H + 1, 5 μ/well.
Where [2] appears, read: HSV1 TK^+, added H − 1, 5 μ/well.
Setting [3] is: HSV1 TK^+, added H − 2, 5 μ/well.
Where [4] appears, read: Human alphaherpesvirus 1, Vero, read-out: CPE inhibition (antiviral activity).

As for “(K)19-AISRGGGYSYYLDTVKRTARATWDWFAY (KKKKKKKKKKKKKKKKKKKAISRGGGYSYYLDTVKRTARATWDWFAY) [K19PC2.1]”, the “CPE inhibition (AI)” value is 81 with HSV-1 TK^− virus (added H0, 5 μ/well); 92 in the data set with HSV-1 TK^− virus (added H0, 10 μ/well); 26 with HSV-1 TK^− virus (added H + 1, 5 μ/well); 72 with HSV-1 TK^− virus (added H − 1, 5 μ/well); 100 in the data set with HSV-1 TK^− virus (added H − 2, 5 μ/well); 69 in the data set on HSV-1 TK^+ virus (HSV1 TK^+, added H0, 5 μ/well). The “CPE inhibition (AI)” value in the data set with HSV-1 TK^+ virus (setting [1]) came to 37; with HSV-1 TK^+ virus (setting [2]) it was 8; with HSV-1 TK^+ virus (setting [3]), 1. In addition, the “LOG (TITER/ML)” value was determined as 8.6 with PV1/Sabin and 9.05 with PV1/Mahoney. The figures for the “TITER REDUCTION FACTOR” value with PV1/Sabin and with PV1/Mahoney were 8 and 4, respectively.

As to “(K)19-VAYISRGGGIFYYQDSIKGRFTREKYGKRGMDY (KKKKKKKKKKKKKKKKKKKVAYISRGGGIFYYQDSIKGRFTREKYGKRGMDY) [K19pJ20-8]”, the “CPE inhibition (AI)” value in the data set with HSV-1 TK^− virus (added H0, 5 μ/well) was found to be 38; with HSV-1 TK^− virus (added H0, 10 μ/well), 56; with HSV-1 TK^− virus (added H0, 20 μ/well), 86; in the data set with HSV-1 TK^− virus (added H + 1, 5 μ/well), 1; with HSV-1 TK^− virus (added H + 1, 10 μ/well) it was 3; with HSV-1 TK^− virus (added H + 1, 20 μ/well), 11. Besides, the “CPE inhibition (AI)” value in the data set with HSV-1 TK^− virus (added H − 1, 5 μ/well) is on record as 29; with HSV-1 TK^− virus (added H − 1, 10 μ/well) it was 49; in the data set with HSV-1 TK^− virus (added H − 1, 20 μ/well) it was 100; with HSV-1 TK^− virus (added H − 2, 5 μ/well), 55; in the data set with HSV-1 TK^− virus (added H − 2, 10 μ/well) it was 46; with HSV-1 TK^− virus (added H − 2, 20 μ/well) it was 0. The “CPE inhibition (AI)” value amounted to 37 in the data set with HSV-1 TK^+ virus (HSV1 TK^+, added H0, 5 μ/well); 71 in the data set with HSV-1 TK^+ virus (HSV1 TK^+, added H0, 10 μ/well); 86 with HSV-1 TK^+ virus (HSV1 TK^+, added H0, 20 μ/well); 0 in the data set with HSV-1 TK^+ virus (setting [1]); 1 in the data set with HSV-1 TK^+ virus (HSV1 TK^+, added H + 1, 10 μ/well); 0 in the data set with HSV-1 TK^+ virus (HSV1 TK^+, added H + 1, 20 μ/well). In addition, the “CPE inhibition (AI)” value in the data set on HSV-1 TK^+ virus (setting [2]) worked out at 27; in the data set with HSV-1 TK^+ virus (HSV1 TK^+, added H − 1, 10 μ/well) it was 74; with HSV-1 TK^+ virus (HSV1 TK^+, added H − 1, 20 μ/well) it was 89; in the data set with HSV-1 TK^+ virus (setting [3]), 1; in the data set on HSV-1 TK^+ virus (HSV1 TK^+, added H − 2, 10 μ/well), 44; in the data set with HSV-1 TK^+ virus (HSV1 TK^+, added H − 2, 20 μ/well), 78. Besides, the “inhibition of the CPE effect, in words” value with HSV-1 TK^− virus and in the data set with HSV-1 TK^+ virus (HSV-1 TK^+) was “very active against the two viral strains” each time. The “LOG (TITER/ML)” value in the data set on PV1/Sabin is given as 8.6; in the data set with PV1/Mahoney it was 8.9. Moreover, the “TITER REDUCTION FACTOR” value is 8 in the data set with PV1/Sabin and 6 in the data set with PV1/Mahoney.

`Nc1nc2c(ncn2COCCO)c(=O)[nH]1` [ACYCLOVIR ®, Acyclovir, reference compound]: the “inhibition of the CPE effect, in words” value with HSV-1 TK^− virus is given as “no effect”. For the same compound, the inhibition at 1 µM with HSV-1 TK^− virus (setting [4]) worked out at 0%; in the data set with HSV-1 TK^+ virus (Human alphaherpesvirus 1, Vero, 10^−6 M, HSV1 TK^+, read-out: CPE inhibition (antiviral activity)) it was 9%. Further, the inhibition at 10 µM in the data set on HSV-1 TK^− virus (setting [4]) stood at 0%; in the data set with HSV-1 TK^+ virus (Human alphaherpesvirus 1, Vero, 10^−5 M, HSV1 TK^+, read-out: CPE inhibition (antiviral activity)) it was 7%. Besides, the inhibition at 100 µM with HSV-1 TK^− virus (setting [4]) is 0%; with HSV-1 TK^+ virus (Human alphaherpesvirus 1, Vero, 10^−4 M, HSV1 TK^+, read-out: CPE inhibition (antiviral activity)), 49%. Also, the inhibition at 1000 µM with HSV-1 TK^− virus (setting [4]) worked out at 0%; with HSV-1 TK^+ virus (Human alphaherpesvirus 1, Vero, 10^−3 M, HSV1 TK^+, read-out: CPE inhibition (antiviral activity)), 62%. In addition, the “optical density, non infected cells” value with Vero cells (10^−3 M /0, column HSV1 TK^+) is recorded as 0.909 ± 0.016; with Vero cells (10^−3 M /0, column HSV1 TK^−), 0.789 ± 0.160; in the data set on Vero cells (10^−4 M /0, column HSV1 TK^+), 1.027 ± 0.042; with Vero cells (10^−4 M /0, column HSV1 TK^−), 0.834 ± 0.086; in the data set with Vero cells (10^−5 M /0, column HSV1 TK^+), 0.975 ± 0.093; in the data set with Vero cells (10^−5 M /0, column HSV1 TK^−), 0.869 ± 0.053. Moreover, the “optical density, non infected cells” value is 0.960 ± 0.025 in the data set with Vero cells (10^−6 M /0, column HSV1 TK^+) and 0.816 ± 0.001 in the data set with Vero cells (10^−6 M /0, column HSV1 TK^−).
